Measurements published in US20250382344A1, “Soluble GLP1/GIP/NPY2 Receptor Triple Agonists” (Boehringer Ingelheim International GmH, priority 2024, published 2025).
Where two headings read alike, the source gives them in different places. Where a SMILES comes first, the peptide text is derived from it. Side-chain parts run from the residue outwards. [ ]: non-standard residue; d: D form. The star is where a group is joined. ξ: configuration not given here. C18 diacid = O=C(O)CCCCCCCCCCCCCCCCC(=O)*; NMeY = CN[C@@H](Cc1ccc(O)cc1)C(=O)O; Palmitoyl = CCCCCCCCCCCCCCCC(=O)*; αMeF = C[C@](N)(Cc1ccccc1)C(=O)O; ξIva = CCC(C)(N)C(=O)O; Aib = CC(C)(N)C(=O)O

Experiments:
[1] = Solubility in 0.1 M phosphate buffer at pH 7; type: physicochemical; conditions: 0.1 M phosphate buffer at pH 7, 10 mg/mL final peptide concentration, shaking 2 hours at room temperature, peptides as TFA-salts; measured sample pH 6.5-7.0
hGIPR = target: T1, hGIPR (Homo sapiens, UniProt P48546); assay: hGIPR CreLuc assay in 0.5% and 100% plasma (CHO CRE-luciferase reporter cells); type: cell-based
T1 construct: expressed in transfected cells; host or cells: CHO CRE-luciferase reporter cells
T1 sequence (P48546 22-466): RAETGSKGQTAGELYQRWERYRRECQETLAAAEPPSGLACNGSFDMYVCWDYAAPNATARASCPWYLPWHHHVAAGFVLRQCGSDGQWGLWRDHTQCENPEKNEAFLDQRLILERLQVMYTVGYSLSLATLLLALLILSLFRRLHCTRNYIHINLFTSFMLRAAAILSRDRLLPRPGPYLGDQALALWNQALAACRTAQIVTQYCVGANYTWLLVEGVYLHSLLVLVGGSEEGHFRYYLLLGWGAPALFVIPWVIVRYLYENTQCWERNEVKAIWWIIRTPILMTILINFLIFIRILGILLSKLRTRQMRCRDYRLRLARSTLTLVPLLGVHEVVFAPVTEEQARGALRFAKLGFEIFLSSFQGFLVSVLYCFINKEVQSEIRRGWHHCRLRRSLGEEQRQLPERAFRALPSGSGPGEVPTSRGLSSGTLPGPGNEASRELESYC
From the text: CHO and HEK-293 recombinant cell lines express a luciferase reporter gene under control of the CAMP responsive element (CRE). As a second recombinant protein the GLP-1 and NPY2 receptors were expressed in the reporter gene HEK cells, and the GIP receptor was expressed in the reporter gene CHO cells, respectively. Stimulation of these recombinant cells with an agonist leads to an increase of intracellular CAMP levels. In the presence of CAMP, the transcription factor CRE binding protein (CREB) binds to the CRE and to the CREB binding protein (CBP), which leads to transcription of the luciferase reporter gene. Peptides upon serial-dilution in 100% DMSO were transferred into 384-well assay plates with 5 μl pre-dispensed assay buffer (1×HBSS, 20 mM HEPES, pH7.4 supplemented with 0.5% human plasma) using acoustic dispensing on a Labcyte ECHO. Cryo-preserved transgenic reporter gene cells were thawed in assay buffer. 20 μl (10.000 cells/well) were added to the plate with the peptides and incubated for 4 hours at 37° C. in a humidified incubator. Following incubation, assay plates are equilibrated to room temperature, followed by addition of 25 μl of Bright-Glo™ Luciferase reagent, incubation at room temperature for 10 minutes and analysis of luminescence (Envision Reader). […] EC50 values were calculated by non-linear regression using sigmoid concentration-response with variable slope.
The same assays were run in the presence of 100% plasma with no additional buffer constituents.

solubility at 2 h [1] [µg/mL] | EC50 (hGIPR; 0.5% human plasma, read-out: hGIPR 0.5% hP) [nM] | EC50 (hGIPR; 100% human plasma, read-out: hGIPR 100% hP) [nM] | solubility [1] [µg/mL] | SMILES | EC50 (hGIPR; hGIPR 0.5% hP (nM), 0.5% human plasma) [nM] | EC50 (hGIPR; hGIPR 100% hP (nM), 100% human plasma) [nM]
10000 | 0.3 | 11.5 | – | CC[C@H](C)[C@H](NC(=O)[C@H](CC(C)C)NC(=O)[C@H](Cc1c[nH]cn1)NC(=O)[C@H](CCCNC(=N)N)NC(=O)[C@@H](NC(=O)[C@H](Cc1ccccc1)NC(=O)[C@H](C)NC(=O)C(C)(C)NC(=O)[C@H](CCC(N)=O)NC(=O)[C@H](C)NC(=O)[C@H](C)NC(=O)[C@H](CCCCN)NC(=O)[C@H](CCC(=O)O)NC(=O)[C@H](CC(C)C)NC(=O)C(C)(C)NC(=O)[C@@H](NC(=O)[C@H](CO)NC(=O)[C@H](Cc1ccc(O)cc1)NC(=O)[C@H](CC(=O)O)NC(=O)[C@H](CO)NC(=O)[C@@H](NC(=O)[C@H](Cc1ccccc1)NC(=O)[C@@H](NC(=O)CNC(=O)[C@H](CCC(=O)O)NC(=O)C(C)(C)NC(=O)[C@@H](N)Cc1ccc(O)cc1)[C@@H](C)O)[C@@H](C)O)[C@@H](C)CC)C(C)C)C(=O)N[C@@H](CC(N)=O)C(=O)N[C@@H](CCCCNC(=O)[C@@H](N)CCCCNC(=O)CC[C@H](NC(=O)CC[C@H](NC(=O)CC[C@H](NC(=O)CC[C@H](NC(=O)CC[C@H](NC(=O)CC[C@H](NC(=O)CCCCCCCCCCCCCCCCCCC(=O)O)C(=O)O)C(=O)O)C(=O)O)C(=O)O)C(=O)O)C(=O)O)C(=O)NC(C)(C)C(=O)N[C@H](C(=O)N[C@@H](CCCNC(=N)N)C(=O)N[C@@H](CCC(N)=O)C(=O)N[C@@H](CCCNC(=N)N)C(=O)N[C@@H](Cc1ccc(O)cc1)C(N)=O)[C@@H](C)O [Compound 4, Y-Aib-E-G-T-F-T-S-D-Y-S-I-Aib-L-E-K-A-A-Q-Aib-A-F-V-R-H-L-I-N-K(1,3)-Aib-T-R-Q-R-Y-NH2.C20DA-gGlu-gGlu-gGlu-gGlu-gGlu-gGlu-eLys(1,2)] | – | –
9000 | – | – | – | CC[C@H](C)[C@H](NC(=O)[C@H](C)NC(=O)[C@H](Cc1c[nH]cn1)NC(=O)[C@H](CCCNC(=N)N)NC(=O)[C@@H](NC(=O)[C@H](Cc1ccccc1)NC(=O)[C@H](C)NC(=O)C(C)(C)NC(=O)[C@H](CCC(N)=O)NC(=O)[C@H](C)NC(=O)[C@H](CCC(N)=O)NC(=O)[C@H](CCCCN)NC(=O)[C@H](CCC(=O)O)NC(=O)[C@H](CC(C)C)NC(=O)C(C)(C)NC(=O)[C@@H](NC(=O)[C@H](CO)NC(=O)[C@H](Cc1ccc(O)cc1)NC(=O)[C@H](CC(=O)O)NC(=O)[C@H](CO)NC(=O)[C@@H](NC(=O)[C@H](Cc1ccccc1)NC(=O)[C@@H](NC(=O)CNC(=O)[C@H](CCC(=O)O)NC(=O)C(C)(C)NC(=O)[C@@H](N)Cc1ccc(O)cc1)[C@@H](C)O)[C@@H](C)O)[C@@H](C)CC)C(C)C)C(=O)N[C@@H](CC(N)=O)C(=O)N[C@@H](CCCCNC(=O)[C@@H](N)CCCCNC(=O)CC[C@H](NC(=O)CC[C@H](NC(=O)CC[C@H](NC(=O)CC[C@H](NC(=O)CC[C@H](NC(=O)CC[C@H](NC(=O)CCCCCCCCCCCCCCCCC(=O)O)C(=O)O)C(=O)O)C(=O)O)C(=O)O)C(=O)O)C(=O)O)C(=O)NC(C)(C)C(=O)N[C@H](C(=O)N[C@@H](CCCNC(=N)N)C(=O)N[C@@H](CCC(N)=O)C(=O)N[C@@H](CCCNC(=N)N)C(=O)N[C@@H](Cc1ccc(O)cc1)C(N)=O)[C@@H](C)O [Compound 139, Y-Aib-E-G-T-F-T-S-D-Y-S-I-Aib-L-E-K-Q-A-Q-Aib-A-F-V-R-H-A-I-N-K(1,3)-Aib-T-R-Q-R-Y-NH2.C18DA-gGlu-gGlu-gGlu-gGlu-gGlu-gGlu-eLys(1,2)] | – | –
< 1000 | – | – | <1000 | CCCCCCCCCCCCCCCC(=O)NCC(=O)NCC(=O)NCC(=O)NCC(=O)NCCCC[C@H](NC(=O)[C@H](CC(=O)O)NC(=O)[C@H](CO)NC(=O)[C@@H](NC(=O)[C@](C)(Cc1ccccc1)NC(=O)[C@@H](NC(=O)CNC(=O)[C@H](CCC(=O)O)NC(=O)C(C)(C)NC(=O)[C@H](Cc1ccc(O)cc1)NC)[C@@H](C)O)[C@@H](C)O)C(=O)N[C@@H](CO)C(=O)N[C@H](C(=O)NC(C)(C)C(=O)N[C@@H](CC(C)C)C(=O)N[C@@H](CCC(=O)O)C(=O)N[C@@H](CCCCN)C(=O)N[C@@H](CCC(N)=O)C(=O)N[C@@H](CCCNC(=N)N)C(=O)N[C@@H](CCC(N)=O)C(=O)NC(C)(CC)C(=O)N[C@@H](CCC(=O)O)C(=O)N[C@@H](Cc1ccccc1)C(=O)N[C@H](C(=O)N[C@@H](CCCNC(=N)N)C(=O)N[C@@H](Cc1c[nH]cn1)C(=O)N[C@@H](CC(C)C)C(=O)N[C@@H](CC(C)C)C(=O)N[C@@H](CC(N)=O)C(=O)N[C@@H](CCCCN)C(=O)NC(C)(C)C(=O)N[C@H](C(=O)N[C@@H](CCCNC(=N)N)C(=O)N[C@@H](CCC(N)=O)C(=O)N[C@@H](CCCNC(=N)N)C(=O)N[C@@H](Cc1ccc(O)cc1)C(N)=O)[C@@H](C)O)C(C)C)[C@@H](C)CC (stereo partly drawn) [Ref. 1, NMeY-Aib-E-G-T-aMeF-T-S-D-K(1,3)-S-I-Aib-L-E-K-Q-R-Q-Iva-E-F-V-R-H-L-L-N-K-Aib-T-R-Q-R-Y-NH2.C16A-G-G-G-G(1,2), reference compound] (H-[NMeY][Aib]EGT[αMeF]TSDK([Gly-Gly-Gly-Gly-Palmitoyl])SI[Aib]LEKQRQ[ξIva]EFVRHLLNK[Aib]TRQRY-NH2) | – | –
< 1000 | – | – | <1000 | CC[C@H](C)[C@H](NC(=O)[C@H](CO)NC(=O)[C@H](CCCCNC(=O)CNC(=O)CNC(=O)CNC(=O)CNC(=O)CCCCCCCCCCCCCCCCC(=O)O)NC(=O)[C@H](CC(=O)O)NC(=O)[C@H](CO)NC(=O)[C@@H](NC(=O)[C@](C)(Cc1ccccc1)NC(=O)[C@@H](NC(=O)CNC(=O)[C@H](CCC(=O)O)NC(=O)C(C)(C)NC(=O)[C@@H](N)Cc1ccc(O)cc1)[C@@H](C)O)[C@@H](C)O)C(=O)NC(C)(C)C(=O)N[C@@H](CC(C)C)C(=O)N[C@@H](CCC(=O)O)C(=O)N[C@@H](CCCCN)C(=O)N[C@@H](CCC(N)=O)C(=O)N[C@@H](CCCNC(=N)N)C(=O)N[C@@H](CCC(N)=O)C(=O)NC(C)(CC)C(=O)N[C@@H](CCC(=O)O)C(=O)N[C@@H](Cc1ccccc1)C(=O)N[C@H](C(=O)N[C@@H](CCCNC(=N)N)C(=O)N[C@@H](Cc1c[nH]cn1)C(=O)N[C@@H](CC(C)C)C(=O)N[C@@H](CC(C)C)C(=O)N[C@@H](CC(N)=O)C(=O)N[C@@H](CCCCN)C(=O)NC(C)(C)C(=O)N[C@H](C(=O)N[C@@H](CCCNC(=N)N)C(=O)N[C@@H](CCC(N)=O)C(=O)N[C@@H](CCCNC(=N)N)C(=O)N[C@@H](Cc1ccc(O)cc1)C(N)=O)[C@@H](C)O)C(C)C (stereo partly drawn) [Ref. 3, Y-Aib-E-G-T-aMeF-T-S-D-K(1,3)-S-I-Aib-L-E-K-Q-R-Q-Iva-E-F-V-R-H-L-L-N-K-Aib-T-R-Q-R-Y-NH2.C18DA-G-G-G-G(1,2), reference compound] (H-Y[Aib]EGT[αMeF]TSDK([Gly-Gly-Gly-Gly-C18 diacid])SI[Aib]LEKQRQ[ξIva]EFVRHLLNK[Aib]TRQRY-NH2) | – | –

SMILES | solubility at 2 h [1] [µg/mL] | EC50 (hGIPR; 0.5% human plasma, read-out: hGIPR 0.5% hP) [nM] | EC50 (hGIPR; 100% human plasma, read-out: hGIPR 100% hP) [nM] | solubility [1] [µg/mL] | EC50 (hGIPR; hGIPR 0.5% hP (nM), 0.5% human plasma) [nM] | EC50 (hGIPR; hGIPR 100% hP (nM), 100% human plasma) [nM]
CC[C@H](C)[C@H](NC(=O)[C@H](CC(C)C)NC(=O)[C@H](Cc1c[nH]cn1)NC(=O)[C@H](CCCNC(=N)N)NC(=O)[C@@H](NC(=O)[C@H](Cc1ccccc1)NC(=O)[C@H](C)NC(=O)C(C)(C)NC(=O)[C@H](CCC(N)=O)NC(=O)[C@H](C)NC(=O)[C@H](CCC(N)=O)NC(=O)[C@H](CCCCN)NC(=O)[C@H](CCC(=O)O)NC(=O)[C@H](CC(C)C)NC(=O)C(C)(C)NC(=O)[C@@H](NC(=O)[C@H](CO)NC(=O)[C@H](CC(C)C)NC(=O)[C@H](CC(=O)O)NC(=O)[C@H](CO)NC(=O)[C@@H](NC(=O)[C@H](Cc1ccccc1)NC(=O)[C@@H](NC(=O)CNC(=O)[C@H](CCC(=O)O)NC(=O)C(C)(C)NC(=O)[C@@H](N)Cc1ccc(O)cc1)[C@@H](C)O)[C@@H](C)O)[C@@H](C)CC)C(C)C)C(=O)N[C@@H](CC(N)=O)C(=O)N[C@@H](CCCCNC(=O)CCCCCNC(=O)CCCCCNC(=O)CC[C@H](NC(=O)CC[C@H](NC(=O)CC[C@H](NC(=O)CC[C@H](NC(=O)CC[C@H](NC(=O)CCCCCCCCCCCCCCCCCCC(=O)O)C(=O)O)C(=O)O)C(=O)O)C(=O)O)C(=O)O)C(=O)NC(C)(C)C(=O)N[C@H](C(=O)N[C@@H](CCCNC(=N)N)C(=O)N[C@@H](CCC(N)=O)C(=O)N[C@@H](CCCNC(=N)N)C(=O)N[C@@H](Cc1ccc(O)cc1)C(N)=O)[C@@H](C)O [Compound 1, Y-Aib-E-G-T-F-T-S-D-L-S-I-Aib-L-E-K-Q-A-Q-Aib-A-F-V-R-H-L-I-N-K(1,3)-Aib-T-R-Q-R-Y-NH2.C20DA-gGlu-gGlu-gGlu-gGlu-gGlu-AHX-AHX(1,2)] | 9800 | – | – | – | 0.2 | 10.3
